Molecular target: T1, human TCH169 (Homo sapiens, UniProt Q86YT5)
T1 construct: expressed in transfected cells
Assay: [1,5-^14C] citric acid uptake in the human TCH169 gene expression cell line
Assay type: cell-based
Settings: human TCH169 expressing CHO cells clone No. 2-11; NaCl buffer (140 mM NaCl) vs NMDG buffer and Mock cells; 37° C., 15 minutes, 30 minutes and an hour
Experimental: Using human TCH169 gene expression cell line clone No. 2-11 acquired in EXAMPLE 7, the uptake of [1,5-^14C] citric acid was assayed. Human TCH169 gene expression cell line clone No. 2-11 was seeded on a 96 well plate in 4×10^4 cells per well, followed by incubation at 37° C. for 24 hours. After the medium was removed, the cells were washed 3 times with 150 μL NMDG buffer (140 mM N-methyl-D(−)-glucamine, 25 mM Hepes/Tris, 5.4 mM KCl, 1.8 mM CaCl2, 0.8 mM MgSO4, 5 mM glucose, pH 7.4-7.6), and 150 μL NMDG buffer was supplemented thereto followed by incubation at 37° C. for an hour. After the buffer was replaced with 90 μL NaCl buffer (140 mM NaCl, 25 mM Hepes/Tris, 5.4 mM KCl, 1.8 mM CaCl2, 0.8 mM MgSO4, 5 mM glucose, pH 7.4-7.6) or 90 μL NMDG buffer, 10 μL of 223 μM [1,5-^14C] citric acid (manufactured by Amersham-Pharmacia-Biotech) was added and incubation was performed at 37° C. for 15 minutes, 30 minutes and an hour followed by washing 3 times with 200 μL PBS (manufactured by Takara Shuzo Co., Ltd.). After 100 μL of Opitiphase ‘SuperMix’ (manufactured by Perkin-Elmer-Life Science) was added to the system and the mixture was stirred, the amount of [1,5-^14C] citric acid taken up into the cells was measured in terms of the radioactivity. […] CHO dhfr^− cells transfected with vector pcDNA3.1(+) (Mock) was also treated in a similar manner to measure the radioactivity as well.

T1 sequence (Q86YT5 whole entry): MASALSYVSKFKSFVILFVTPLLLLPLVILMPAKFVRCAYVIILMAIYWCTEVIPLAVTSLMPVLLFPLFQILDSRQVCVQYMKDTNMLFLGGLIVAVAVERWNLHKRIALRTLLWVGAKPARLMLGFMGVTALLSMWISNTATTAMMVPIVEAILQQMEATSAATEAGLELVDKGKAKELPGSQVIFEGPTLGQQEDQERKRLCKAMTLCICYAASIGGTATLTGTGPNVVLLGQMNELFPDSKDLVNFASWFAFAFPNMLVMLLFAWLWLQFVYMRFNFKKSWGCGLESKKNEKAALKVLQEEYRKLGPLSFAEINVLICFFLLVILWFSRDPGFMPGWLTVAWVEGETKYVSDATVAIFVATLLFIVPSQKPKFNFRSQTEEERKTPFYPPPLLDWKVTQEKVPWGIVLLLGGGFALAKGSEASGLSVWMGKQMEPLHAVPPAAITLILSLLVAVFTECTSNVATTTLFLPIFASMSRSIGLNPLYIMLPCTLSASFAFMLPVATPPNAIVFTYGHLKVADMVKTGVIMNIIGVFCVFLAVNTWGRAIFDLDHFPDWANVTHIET

## O=C(O)C(O)(C[14C](=O)O)C[14C](=O)O [[1,5-^14C] citric acid]
  uptake of [1,5-^14C] citric acid into the cells (radioactivity): taken up into the human TCH169 expression CHO cells

Reference: patent publication US20040253597A1, “Novel protein and dna thereof” (priority 2001, published 2004)
